Source: BindingDB's records for PubMed 2925675 (Nagoya University School of Medicine, 1989)

What was measured:
Assay in all cases: Enzyme Assay
Details in all cases: pH 7.4; 30 °C
[1] = target: Calcium/calmodulin-dependent protein kinase II inhibitor 2 (Bos taurus, UniProt A5D7T0)
[2] = target: Protein kinase C alpha type (Homo sapiens, UniProt P17252)
[3] = target: cAMP-dependent protein kinase type I-alpha regulatory subunit (Bos taurus, UniProt P00514)
[4] = target: Casein kinase I isoform alpha (Homo sapiens, UniProt P48729)
Sequence of Casein kinase I isoform alpha (P48729 whole entry, canonical isoform): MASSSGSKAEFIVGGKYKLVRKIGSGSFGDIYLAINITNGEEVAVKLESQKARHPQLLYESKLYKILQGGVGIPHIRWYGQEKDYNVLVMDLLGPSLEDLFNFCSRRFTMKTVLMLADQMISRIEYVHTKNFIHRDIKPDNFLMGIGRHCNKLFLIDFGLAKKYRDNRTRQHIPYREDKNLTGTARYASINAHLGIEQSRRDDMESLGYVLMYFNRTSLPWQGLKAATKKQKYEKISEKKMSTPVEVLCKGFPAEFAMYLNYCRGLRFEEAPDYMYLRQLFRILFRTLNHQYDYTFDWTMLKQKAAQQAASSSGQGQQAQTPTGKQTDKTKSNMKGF
Protocol: (§1) Casein kinase activities were determined under the conditions as described by Huang et al (1982).

[5] = target: Casein kinase II subunit alpha (Homo sapiens, UniProt P68400)
Sequence of Casein kinase II subunit alpha (P68400 whole entry): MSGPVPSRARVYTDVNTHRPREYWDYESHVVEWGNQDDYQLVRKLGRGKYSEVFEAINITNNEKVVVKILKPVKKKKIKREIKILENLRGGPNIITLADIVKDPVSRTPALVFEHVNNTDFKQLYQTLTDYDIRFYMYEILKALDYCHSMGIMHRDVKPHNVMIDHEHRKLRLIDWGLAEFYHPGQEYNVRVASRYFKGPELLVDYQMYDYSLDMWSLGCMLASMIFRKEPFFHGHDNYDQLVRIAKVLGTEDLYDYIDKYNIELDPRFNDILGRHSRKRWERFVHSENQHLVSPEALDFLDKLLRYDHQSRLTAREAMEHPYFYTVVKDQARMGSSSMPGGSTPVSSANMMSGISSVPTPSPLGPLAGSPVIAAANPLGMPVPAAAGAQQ
Protocol: as §1

Sequence of cAMP-dependent protein kinase type I-alpha regulatory subunit (P00514 whole entry, canonical isoform): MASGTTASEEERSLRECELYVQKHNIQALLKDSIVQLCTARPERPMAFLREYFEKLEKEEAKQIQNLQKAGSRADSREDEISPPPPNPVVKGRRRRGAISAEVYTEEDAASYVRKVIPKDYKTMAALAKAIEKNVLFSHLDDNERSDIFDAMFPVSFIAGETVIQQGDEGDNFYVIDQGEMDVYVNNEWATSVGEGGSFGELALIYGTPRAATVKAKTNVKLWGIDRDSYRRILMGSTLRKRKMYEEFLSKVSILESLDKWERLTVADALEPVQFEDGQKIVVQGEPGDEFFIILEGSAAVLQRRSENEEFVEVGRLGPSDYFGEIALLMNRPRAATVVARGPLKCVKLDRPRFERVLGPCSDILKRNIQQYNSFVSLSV
Sequence of Calcium/calmodulin-dependent protein kinase II inhibitor 2 (A5D7T0 whole entry): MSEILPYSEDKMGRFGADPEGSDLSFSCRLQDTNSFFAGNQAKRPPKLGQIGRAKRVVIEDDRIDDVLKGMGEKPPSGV

SMILES	IC50 [1] [µM]	IC50 [2] [µM]	IC50 [3] [µM]	IC50 [4] [µM]	IC50 [5] [µM]
NCCNS(=O)(=O)c1cccc2cnccc12 [Isoquinoline-5-sulfonic acid (2-amino-ethyl)-amide]	58	18	3.6	110	> 300
NCCNS(=O)(=O)c1ccc(Cl)c2ccncc12 [Isoquinolinesulfonamide, CKI-7]	195	> 1000	550	9.5	90
NCCNS(=O)(=O)c1cccc2ccncc12 [Isoquinolinesulfonamide, CKI-6]	840	> 1000	> 1000	50	> 300
